Assay [1] in a line: Anticancer activity against human U937 cells assessed as decrease in uridine incorporation at 30 uM relative to control. The format is functional, U-937. Also on record: scale not given: the % may be the effect or the level left.
The test system of assay [2] is HCT-15. In words: Growth inhibition of human HCT15 cells at 10^-5 M relative to control. The format is functional. As to conditions: values are per cent of control.
Assay [3] concerns MOLT-4. In words: Growth inhibition of human MOLT4 cells at 10^-5 M relative to control. Format: functional. Particulars: values are per cent of control.
Assay [4] relates to LOX IMVI. In words: Growth inhibition of human LOXIMVI cells at 10^-5 M relative to control. Particulars: values are per cent of control. The format is functional.
Assay [5] in a line: Growth inhibition of human UO31 cells at 10^-5 M relative to control. Format: functional. As to conditions: UO-31, values are per cent of control.
Assay [6] concerns SNB-75. In words: Growth inhibition of human SNB75 cells at 10^-5 M relative to control. Format: functional. Particulars: values are per cent of control.
The subject of assay [7] is CCRF-CEM. In words: Growth inhibition of human CCRF-CEM cells at 10^-5 M relative to control. The format is functional. Particulars: values are per cent of control.
The nature of assay [8]: Growth inhibition of human OVCAR5 cells at 10^-5 M relative to control. Particulars: OVCAR-5, values are per cent of control. The format is functional.
Assay [9] has as its system MDA-MB-468. In words: Growth inhibition of human MDA-MB-468 cells at 10^-5 M relative to control. As to conditions: values are per cent of control. Format: functional.
Assay [10] deals with MCF7. In words: Growth inhibition of human MCF7 cells at 10^-5 M relative to control. Particulars: values are per cent of control. Format: functional.
Assay [11] relates to NCI-H522. In words: Growth inhibition of human NCI-H522 cells at 10^-5 M relative to control. The format is functional. Particulars: values are per cent of control.
The test system of assay [12] is T47D. In words: Growth inhibition of human T47D cells at 10^-5 M relative to control. Format: functional. Particulars: values are per cent of control.
In assay [13] the test system is NCI-H226. In words: Growth of human NCI-H226 cells at 10^-5 M relative to control.
Assay [14] deals with HL-60(TB). In words: Growth inhibition of human HL-60(TB) cells at 10^-5 M relative to control. The format is functional. Particulars: values are per cent of control.
Assay [15] relates to K562. In words: Growth inhibition of human K562 cells at 10^-5 M relative to control. As to conditions: values are per cent of control. Format: functional.
The subject of assay [16] is SR. In words: Growth inhibition of human SR cells at 10^-5 M relative to control. Format: functional. As to conditions: values are per cent of control.
Assay [17] has as its system NCI-H322M. In words: Growth inhibition of human NCI-H322M cells at 10^-5 M relative to control. The format is functional. As to conditions: values are per cent of control.
For assay [18], the system named is CAKI-1. In words: Growth inhibition of human CAKI-1 cells at 10^-5 M relative to control. Format: functional. Particulars: values are per cent of control.
Assay [19] is described as follows: Growth inhibition of human RXF393 cells at 10^-5 M relative to control. Format: functional. Particulars: RXF 393, values are per cent of control.
In assay [20] the test system is PC-3. In words: Growth inhibition of human PC3 cells at 10^-5 M relative to control. Format: functional. As to conditions: values are per cent of control.
In assay [21] the test system is HCT-116. In words: Growth inhibition of human HCT116 cells at 10^-5 M relative to control. The format is functional. Particulars: values are per cent of control.
Assay [22] relates to IGROV-1. In words: Growth inhibition of human IGROV1 cells at 10^-5 M relative to control. Format: functional. Particulars: values are per cent of control.
The nature of assay [23]: Growth inhibition of human NCI-ADR-RES cells at 10^-5 M relative to control. As to conditions: values are per cent of control. Format: functional.
In assay [24] the test system is SK-MEL-5. In words: Growth inhibition of human SK-MEL-5 cells at 10^-5 M relative to control. Format: functional. Particulars: values are per cent of control.

For the compound `O=c1[nH]c(=O)n([C@H]2C[C@@H]3[C@@H](/C=C/[C@@H](O)COc4cccc(Cl)c4)[C@H](O)C[C@@H]3O2)cc1I`, the Activity in assay [1] is listed as 64%.
`Nc1ncnc2c1ncn2[C@H]1C[C@H]2[C@H](CO)[C@@H]1C[C@@H]2Cl`: the growth, % of control at 10 µM was 97.5% in assay [2]; 85.6% in assay [3]; 91.8% in [4]; 94.2% in [5]; 103% in assay [6]; 90.1% in [7]. The growth, % of control at 10 µM in assay [8] is 90.1%; in assay [9] it was 103%; in assay [10], 100%; in assay [11], 98.7%; in [12], 102%; in assay [13] it was 110%. Also, the growth, % of control at 10 µM in [14] was 95.8%; in [15] it was 97.1%; in [16], 88.9%; in [17], 102%; in assay [18], 86.9%; in assay [19], 106%. The growth, % of control at 10 µM was determined as 99.3% in [20]; 89.2% in assay [21]; 103% in assay [22]; 103% in [23]; 96.5% in assay [24].
As for `CN(C)c1ncnc2c1ncn2[C@H]1C[C@H]2[C@H](CO)[C@@H]1C[C@@H]2Cl`, the growth, % of control at 10 µM was 100% in assay [2]; 78.9% in [3]; 96.8% in [4]; 79.1% in assay [5]; 99.3% in [6]; 86.7% in assay [7]. The growth, % of control at 10 µM in [8] is 90.3%; in assay [9] it was 102%; in assay [10], 94.9%; in assay [11] it was 88.3%; in assay [12] it was 96.8%; in [13], 101%. Further, the growth, % of control at 10 µM in assay [14] was 98.2%; in assay [15], 91%; in [16], 81.4%; in assay [17], 96.8%; in [18], 95.1%; in assay [19], 109%. The growth, % of control at 10 µM was determined as 93.3% in assay [20]; 101% in assay [21]; 101% in assay [22]; 98.7% in assay [23]; 99.5% in assay [24].
As for `CN(C)c1ncnc2c1ncn2[C@H]1C[C@@H]2C=C[C@H]1[C@H]2CO`, the growth, % of control at 10 µM in assay [2] was determined as 98.9%; in [3], 79.7%; in assay [4], 95.8%; in assay [5] it was 82.7%; in [6], 109%; in assay [7], 87.9%. The growth, % of control at 10 µM in assay [8] was 96.5%; in [9], 98.2%; in assay [10] it was 98.7%; in assay [11], 98.5%; in assay [12], 104%; in assay [13], 109%. Besides, the growth, % of control at 10 µM worked out at 88.8% in assay [14]; 90% in [15]; 82.2% in assay [16]; 104% in assay [17]; 97.9% in [18]; 109% in [19]. For the same compound, the growth, % of control at 10 µM in assay [20] was 92%; in assay [21], 94.8%; in [22], 98.2%; in [23] it was 99.5%; in assay [24] it was 98.3%.
For the compound `OC[C@H]1[C@@H]2C[C@H](n3cnc4c(NC5CC5)ncnc43)[C@H]1C[C@@H]2Cl`, the growth, % of control at 10 µM was found to be 96.5% in assay [2]; 84.8% in assay [3]; 89.6% in assay [4]; 85.8% in assay [5]; 97.8% in assay [6]; 89.5% in assay [7]. The growth, % of control at 10 µM is 95% in assay [8]; 100% in assay [9]; 98.5% in [10]; 88.7% in assay [11]; 89.6% in [12]; -27.2% in assay [13]. Besides, the growth, % of control at 10 µM amounted to 89% in [14]; 95.8% in assay [15]; 86.6% in assay [16]; 90% in [17]; 102% in [18]; 110% in assay [19]. The growth, % of control at 10 µM amounted to 104% in [20]; 96.5% in assay [21]; 90.6% in assay [22]; 101% in assay [23]; 101% in assay [24].
As for `CCN(CC)CCCNc1ncnc2c1ncn2[C@H]1C[C@H]2[C@H](CO)[C@@H]1C[C@@H]2Cl`, the growth, % of control at 10 µM in [2] came out at 101%; in assay [3], 83.6%; in assay [4] it was 96.9%; in assay [5], 80.6%; in assay [6], 99.2%; in assay [7] it was 90.2%. In addition, the growth, % of control at 10 µM in assay [8] worked out at 99.7%; in assay [9], 101%; in assay [10] it was 95.9%; in assay [11] it was 93.2%; in [12], 104%; in assay [13] it was 105%. For the same compound, the growth, % of control at 10 µM in assay [14] came to 90.5%; in [15], 106%; in [16], 85.8%; in assay [17], 93.2%; in [18], 93%; in assay [19], 111%. The growth, % of control at 10 µM was found to be 102% in assay [20]; 98.5% in assay [21]; 112% in assay [22]; 103% in [23]; 102% in assay [24].
Consider `OC[C@H]1[C@@H]2C[C@H](n3cnc4c(N5CCOCC5)ncnc43)[C@H]1C[C@@H]2Cl`, for which the growth, % of control at 10 µM stood at 93% in [2]; 81.1% in assay [3]; 95.8% in assay [4]; 76.9% in assay [5]; 85.6% in assay [6]; 84.9% in assay [7]. For the same compound, the growth, % of control at 10 µM in [8] amounted to 93%; in [9], 110%; in [10] it was 99.9%; in assay [11], 94.5%; in assay [12], 100%; in assay [13] it was 108%. Moreover, the growth, % of control at 10 µM in assay [14] came to 91.9%; in assay [15], 90.7%; in assay [16], 82.3%; in assay [17], 100%; in assay [18], 87.2%; in assay [19], 113%. Also, the growth, % of control at 10 µM in assay [20] was 98.5%; in [21], 89.6%; in [22], 92.3%; in assay [23] it was 99%; in assay [24], 99.8%.

The values are drawn from ChEMBL document CHEMBL3098042, “New carbocyclic nucleoside analogues with a bicyclo[2.2.1]heptane fragment as sugar moiety; synthesis, X-ray crystallography and anticancer activity” (2014).
